Assay results as given in US7338955B1, “Medicament for treatment of neuropathies” (Lilly ICOS LLC, priority 1999, dated 2008).

Key:
painful neuropathy = assay: Case report: type 1 diabetes patient with painful neuropathy treated with sildenafil; assay type: in vivo, human; conditions: 50 mg/week single administration
Description: A patient had been suffering from diabetes mellitus, type 1, for about 35 years. Complications included a retinopathy and a painful neuropathy. Under intensified insulin therapy, blood glucose metabolism data were in a sub-optimum range (HbA1c around 8%). Thus, the patient suffered from a painful neuropathy and was treated unsuccessfully with various conventional medicaments.
Objectifiable diagnostic data were improved as well.

diabetic polyneuropathy = assay: Case report: type 2 diabetes patient with diabetic polyneuropathy treated with sildenafil; assay type: in vivo, human; conditions: twelve months after start of therapy
Description: A patient had been suffering from diabetes mellitus, type 2, for 9 years. While blood glucose values (HbA1c between 6 and 7%) were good, symptoms of a diabetic polyneuropathy appeared, namely vibration sensing of 2/8, no filament sensing, and a reduced hot/cold differentiation. Because of a simultaneous erectile dysfunction they were treated with sildenafil in its commercially available preparation (tablets) at 50 mg/week in a single administration.
Subjectively, the patient noted disappearance of sensory misperceptions of temperature.

SMILES: CCCc1nn(C)c2c(=O)[nH]c(-c3cc(S(=O)(=O)N4CCN(C)CC4)ccc3OCC)nc12 [sildenafil]
- symptomatic pain (painful neuropathy; in the course of the following three months): lasting improvement
- objectifiable diagnostic data (painful neuropathy; three months): improved
- neurologic situation (diabetic polyneuropathy; 50 mg/week single administration (tablets)): largely normal
- sensory misperceptions of temperature (subjective) (diabetic polyneuropathy; 50 mg/week): disappearance
- vibration sensing (diabetic polyneuropathy; 50 mg/week, 2/8 before therapy): 5/8
- filament sensing (diabetic polyneuropathy; 50 mg/week, no filament sensing before therapy): intact
- hot/cold differentiation (diabetic polyneuropathy; 50 mg/week, reduced before therapy): intact
